US12540166B2, “BNIP3 peptides for treatment of reperfusion injury” (Bimyo GmbH, priority 2019, dated 2026)

Columns and labels:
[1] = test system: infarct size in STEMI patients; details: cited from earlier work; for infarct size / effect in patients: clinical trials, administered prior to PPCI
I/R injury = details: in vivo; cited from earlier work
[2] = test system: cancer therapy cardiotoxicity; details: in vivo; cited from earlier work
[3] = test system: BNIP3 and BAX interaction with mitochondria; assay: Mechanistic read-outs in the area at risk of mouse hearts after vessel occlusion and reperfusion; format: in vivo, mice; details: for BNIP3 (and BAX) translocation to / interaction with mitochondria: after 10 min of reperfusion, peptide 5 min before reperfusion
Method: (§1) In vivo myocardial infarction model in mice. […] Sodium chloride injection (50 μl) served as control treatment.
Immunoblotting. Tissue and human CM cells were lysed in a RIPS buffer (50 mM Tris-HCl, 150 mM NaCl, 0.5 mM EDTA, 1% NP-40 and protease- and phosphatase inhibitor, pH 7.4). Isolated mitochondria were lysed in a Mito-lyse buffer (200 mM sucrose, 10 mM HEPES, 1 mM EGTA, 1% Triton-X100 and protease- and phosphatase inhibitor, pH 7.4). The lysates were cleared by centrifugation (20.000×g, 15 min, 4° C.). Protein concentrations in supernatant were measured using DC Protein Assay (Bio-Rad). Samples were diluted into 4×LDS sample buffer and 10× Reducing Agent (Invitrogen) and were prepared for SDS-PAGE by heating to 95° C. for 5 min. Equivalent amounts of protein were separated using 4-12% Bis-Tris Gels (Invitrogen), transferred on to nitrocellulose and immunoblotted with primary antibodies. The used secondary antibodies were horseradish peroxidise conjugated goat anti-mouse or anti-rabbit IgG (Invitrogen). Immunoblotting was detected by ECL (Thermo Scientific) and imaged on an Imager 600 (Amersham).
Immunoprecipitation. Immunoprecipitation were performed using protein G-coupled Dynabeads (Invitrogen). 500 μg lysed proteins were incubated with 2 μg antibody over night at 4° C. with shaking in PBS buffer containing 1 mM DTT, 0.005% Brij35 and protease-phosphatase inhibitors. Next day 20 μl Dynabeads were added and the solution was incubated again for 1 h. The precipitated immune complex was washed 2 times and then resuspended in eluation buffer containing LDS-Sample Buffer (1:4) und Reducing Agent (1:10) (Invitrogen) in PBS and heated for 5 min at 95° C. After removal of the Dynabeads the Eluate were analysed via immunoblotting.
Caspase-3 activity was measured using the Caspase 3 Assay Kit from Abcam (#ab39401). Murine hearts were harvested after 30 min ischemia and 4 h reperfusion, area at risk was isolated, lysed in containing buffer and the assay was performed according to manufacturer's instructions.
(§2) Swelling Assay. Mitochondrial swelling was measured by light scattering at 540 nm in a microplate absorbance reader FLUOstar Omega (BMG Labtech) at RT. The final assay volume was 200 μl, containing mitochondria at 0.5 mg/ml in buffer containing 250 mM sucrose, 10 mM HEPES, […], pH 7.4.

BNIP3 = BNIP3 (Mus musculus, UniProt O55003); assay: BNIP3/TAT-BNIP3-8B overlay assay and docking simulation; format: binding; details: data not shown
Method: Docking Simulation. Experiments were performed using Autodock Vina^52 and HADDOCK^53. The structure of BAX (pdb-ID: 4S0O) was taken from the Protein Data Bank, whereas the structure of BNIP3 and peptide BNIP3-8B were modelled using Modeller9.15^47. The template structures correspond to PDB codes 2k7w and 2ka1. The created model was energy minimized using NAMD2.9^54 and the CHARMM36 force field.

HL-1 cells = assay: Doxorubicin-induced mitochondrial swelling in HL-1 cells (OD540); format: cell-based; details: 5 μM Doxorubicin given simultaneously, 30 min
Method: HL-1 cells were cultured in Claycomb medium as per manufacturer's protocol. The cells were treated with 5 μM Doxorubicin and 2 nmol TAT-BNIP3-8B for 30 min.
as §2

[4] = test system: myocardial infarction model in mice; assay: In vivo myocardial infarction (ischemia/reperfusion) model in mice, infarct size; details: 24 h reperfusion; for effect on infarct size (in words): given 5 min before reperfusion
Method: as §1
Infarct size measurement. For analysis of infarct size, mice were euthanized after 24 hours of reperfusion; hearts were excised and perfused with PBS over 5 min. After perfusion, the LCA was re-ligated in the same location as explicated before. Evans blue dye (1 ml of a 1% solution) was injected into the aorta and coronary arteries for delineation of the ischemic AAR from the non-ischemic zone. The tissue was wrapped in a clear food wrap and stored for one hour in a −20° C. freezer. The heart was then serially sectioned perpendicularly to the long axis in 1 mm slices, and each slice was weighed. The sections were incubated in 1% TTC for 5 min at 37° C. for demarcation of the viable and non-viable myocardium within the risk zone. Infarction, AAR, and non-ischemic left ventricle were assessed with computer-assisted planimetry by an observer blinded to sample identity. The size of the myocardial infarction was expressed as a percentage of the AAR.

[5] = test system: myocardial infarction model in swine; assay: In vivo myocardial infarction model in pigs, infarct size; details: 60 min LAD occlusion, 4 h of reperfusion, IV 5 min before reperfusion, vs vehicle
Description: In vivo myocardial infarction model in pigs. Following induction of anesthesia, a small incision was made over the femoral artery and vein; the vessels were isolated. A small opening was made in the artery and a sheath was introduced. In addition, a sheath was placed in the femoral vein or other appropriate vein to allow for emergency drug administration if necessary. A blood sample was taken prior to administration of heparin and was used to establish a baseline Activated Clotting Time (ACT) which was recorded. Subsequently, as directed by the surgeon, heparin (250 to 350 IU/kg) was administered as needed to achieve and maintain an ACT that is two times the level of the baseline ACT. Following the initial bolus of heparin ACT was recorded again and monitored at least every 60 minutes thereafter, until completion of surgery.
An appropriate guide catheter was advanced into the ostium of the left anterior descending artery (LAD) using visual guidance provided by fluoroscopy. Non-ionic contrast was used for all procedures. A balloon catheter was introduced by advancing it through the guide catheter to the left anterior descending (LAD) coronary artery. The balloon was advanced into the coronary arteries through a guide catheter to a suitable place above the 1st diagonal branch of the LAD. […] Incidence supportive drugs and defibrillation were recorded in the study record. […]

[6] = 37° C.
Method: FIG. 8. TAT-BNIP3-8B pharmacokinetics. Fluorescence labelled BNIP3-8B was incubated in human serum (A), plasma (B), and whole blood (C) at 37° C. for indicated time durations and monitored by Western blot. Proteinase K treatment served as control.

[7] = after reperfusion post vessel occlusion, peptide given 5 min before reperfusion
Method: In vivo myocardial infarction model in mice. Wild-type and Bnip3 deficient (Bnip3^−/−) mice were anesthetized by i.p. injection of ketamine (100 mg/kg) and xylazin (10 mg/kg) and intubated. Mechanical ventilation parameters were set to a tidal volume of 2.1 to 2.5 ml and a respiratory rate of 140 breaths per min using a mouse mini-ventilator. Deep anaesthesia was maintained by adding 2 vol % isoflurane to the ventilation gas. The chest was opened through a lateral thoracotomy (1 cm left lateral incision between the 3rd and 4th ribs). A 6-0 prolene suture was placed around the left coronary artery (LCA) and a piece of soft silicon tubing placed over the artery. Coronary occlusion was achieved by tightening and tying the suture. After 30 min of occlusion, the silicon tubing was removed and the suture left in place. For longer reperfusion times the chest were closed using 4-0 prolene. 2, 6 and 9 nmol (in 50 μl 0.9% sodium chloride) BNIP3 were injected into the left ventricular cavity 5 min before vessel occlusion. Peptides with 20 amino acids (2 nmol/50 μl) and peptides with 8 amino acids (8 nmol/50 μl) in NaCl were injected 5 min before reperfusion. Sodium chloride injection (50 μl) served as control treatment.
Peptides. […] For uptake and binding studies, peptides were labelled with a fluorophore.

[8] = test system: isolated adult cardiomyocytes; details: survival after 24 h
Method: FIG. 7. A Uptake of fluorescence labelled TAT-BNIP3-8B in different organs after 5 min of reperfusion post vessel occlusion. TAT-BNIP3-8B was given 5 min before starting reperfusion. B Survival of isolated adult cardiomyocytes treated with TAT-BNIP3-8B and TAT-BNIP3-8C control peptide after 24 h.

[9] = test system: transient middle cerebral artery occlusion (tMCAO); assay: Mouse model of focal cerebral reperfusion (tMCAO), brain infarct size; format: in vivo; details: 24 h of reperfusion after 30-min tMCAO, vs vehicle
Method: We subjected mice to 24 h of reperfusion after a 30-min transient middle cerebral artery occlusion (tMCAO). BNIP3-8B treatment immediately post tMCAO markedly reduces the infarct size by 52% (FIG. 12).

[10] = test system: human ventricular cardiomyocytes derived from human induced pluripotent stem cells (humanCM); assay: In vitro reoxygenation after hypoxia in humanCM; format: cell-based; details: 2 h of reoxygenation after hypoxia; for mitochondrial inner membrane depolarization / loss of mitochondrial inner membrane potential: JC-1
Method: Cell culture. Human iPSC-derived ventricular cardiomyocytes (humanCM) were obtained from (axol) and were cultivated according to the manufacture's specification.
To simulate vessel occlusion, cells were incubated in buffer (113 mM NaCl, 4.7 mM KCl, 12 mM HEPES, 1.2 mM MgSO4, 30 mM taurine, 1.3 mM CaCl2), pH 7.4) under 1% O2, 37° C. Reoxygenation was performed in buffer supplemented with 5.5 mM glucose under 21% O2, 37° C.
JC-1 Assay. To analyze mitochondrial inner membrane potential in humanCM cells were stained with 5′,6,6′-tetrachloro-1,1′,3,3′-tetraethylbenzimidazolylcarbocyanin Iodid (JC-1). Cells were incubated with 6 μM JC-1 in media at 37° C. for 30 min. After washing cells with PBS buffer at 37° C. they were fixed with 4% PFA for 15 min at room temperature. DAPI staining was performed and cells were analysed using EVOS FL (life Technologies).

elamipretide
infarct size / effect in patients [1]: failed to reduce infarct size
infarct size in animal / pre-clinical studies (I/R injury): reduce infarct size

CC(C)CCC[C@@H](C)[C@H]1CC[C@H]2[C@@H]3CC/C(=N\O)[C@](C)(CCCO)[C@H]3CC[C@]12C [TRO40303]
infarct size / effect in patients [1]: failed to reduce infarct size
adverse events in patients ([1]; compared with the placebo arm): more adverse events
infarct size in animal / pre-clinical studies (I/R injury): reduce infarct size

COc1ccccc1OCCNCC(O)COc1cccc2[nH]c3ccccc3c12 (stereo not shown) [carvedilol]
prevention of cardiotoxicity / cardiomyopathy in cancer patients [2]: failed to show a benefit

TAT-BNIP3-8B: TAT PTD covalently attached to WVELHFFN (BNIP3 amino acids 13-20 with Ser-19 to Phe-19 substitution, SEQ ID NO: 8)
interaction with endogenous BNIP3 / BAX (co-immunoprecipitation) ([3]; 5 min of reperfusion, fluorescence-labelled peptide): endogenous BNIP3 and BAX mono, homo- and heterodimers co-immunoprecipitated
down-stream cell death machinery (mitochondrial swelling, BAX activation, cytochrome c release, caspase-3 activity) ([3]; 10 min to 4 h of reperfusion): inhibition of the down-stream cell death machinery
BNIP3 (and BAX) translocation to / interaction with mitochondria [3]: prevents BNIP3 and BAX translocation to the mitochondria
BNIP3/BAX oligomerization ([3]; cytosol of area at risk, 10 minutes reperfusion, blue native-PAGE): strongly inhibited
binding to BNIP3 (BNIP3): binds to BNIP3
mitochondrial swelling (OD540) (HL-1 cells): prevents mitochondrial swelling
reduction of infarct size ([4]; wild-type mice, peptide into left ventricle 5 min before reperfusion, vs vehicle): up to 40%
reduction of myocardial infarct size [5]: 56%
half-life in human serum, plasma and whole blood [6]: enables its in vivo inhibitory capacity
uptake / tissue distribution [7]: taken up by the heart, spleen and liver and is present in the plasma
toxicity in cardiomyocytes [8]: no signs of overt toxicity
reduction of cerebral infarct size [9]: 52%
apoptotic and necrotic cell death [10]: markedly inhibits necrotic and apoptotic cell death
mitochondrial inner membrane depolarization / loss of mitochondrial inner membrane potential [10]: markedly inhibits

TAT-BNIP3-20C: control peptide: TAT PTD attached to amino acids 42-61 of BNIP3 (LDAQHESGRSSSKSSHCDSP)
BNIP3 (and BAX) translocation to / interaction with mitochondria [3]: does not
effect on infarct size (in words) ([4]; wild-type mice): not effective
apoptotic and necrotic cell death [10]: not effective
translocation of human BNIP3 to mitochondria [10]: not effective
mitochondrial inner membrane depolarization / loss of mitochondrial inner membrane potential [10]: not effective

TAT-BNIP3-8C: control peptide: BNIP3-8B with Phe-18 to Ala-18 and His-17 to Ala-17 substitutions (WVELAASN)
BNIP3 (and BAX) translocation to / interaction with mitochondria [3]: does not
effect on infarct size (in words) ([4]; wild-type mice): does not appreciably affect the infarct size
apoptotic and necrotic cell death [10]: not effective
mitochondrial inner membrane depolarization / loss of mitochondrial inner membrane potential [10]: not effective

B1: BNIP3: BNIP3 protein restituted to BNIP3 deficient mice (TAT-BNIP3 doses, FIG. 1C) (protein)
chain: MSQSGEENLQGSWVELHFSNGNGSSVPASVSIYNGDMEKILLDAQHESGRSSSKSSHCDSPPRSQTPQDTNRAEIDSHSFGEKNSTLSEEDYIERRREVESILKKNSDWIWDWSSRPENIPPKEFLFKHPKRTATLSMRNTSVMKKGGIFSADFLKVFLPSLLLSHLLAIGLGIYIGRRLTTSTSTF
mitochondrial BAX translocation after addition of BNIP3 ([3]; BNIP3 deficient mouse hearts, early phase of reperfusion): restored the BAX translocation
infarct size after restitution of BNIP3 ([4]; BNIP3 deficient (Bnip3−/−) mice): infarct sizes comparable to wild-type mice in a dose-dependent manner
